Tests used:
[1] = In vitro metabolic stability in rat hepatocytes (including calculation of hepatic in vivo blood clearance); assay type: in vitro ADME; conditions: Han Wistar, hepatocytes (freshly isolated, suspension), read-out: CL (hepatic in vivo blood clearance) (converted)
Protocol: Investigation of In Vitro Metabolic Stability in Rat Hepatocytes (Including Calculation of Hepatic In Vivo Blood Clearance (CL))
Hepatocytes from Han Wistar rats were isolated via a 2-step perfusion method. After perfusion, the liver was carefully removed from the rat: the liver capsule was opened and the hepatocytes were gently shaken out into a Petri dish with ice-cold WME. The resulting cell suspension was filtered through sterile gaze in 50 ml falcon tubes and centrifuged at 50×g for 3 min at room temperature. The cell pellet was resuspended in 30 ml WME and centrifuged through a Percoll® gradient for 2 times at 100×g. The hepatocytes were washed again with Williams' medium E (WME) and resuspended in medium containing 5% FCS. Cell viability was determined by trypan blue exclusion.
For the metabolic stability assay liver cells were distributed in WME containing 5% FCS to glass vials at a density of 1.0×10^6 vital cells/ml. The test compound was added to a final concentration of 1 μM. During incubation, the hepatocyte suspensions were continuously shaken and aliquots were taken at 2, 8, 16, 30, 45 and 90 min, to which equal volumes of cold methanol were immediately added.
Samples were frozen at −20° C. over night, after subsequently centrifuged for 15 minutes at 3000 rpm and the supernatant was analyzed with an Agilent 1200 HPLC-system with LCMS/MS detection.
The half-life of a test compound was determined from the concentration-time plot. From the half-life the intrinsic clearances were calculated. Together with the additional parameters liver blood flow, amount of liver cells in vivo and in vitro. The hepatic in vivo blood clearance (CL) and the maximal oral bioavailability (Fmax) was calculated. The following parameter values were used: Liver blood flow—4.2 L/h/kg rat; specific liver weight—32 g/kg rat body weight; liver cells in vivo—1.1×10^8 cells/g liver, liver cells in vitro—0.5×10^6 ml.

[2] = biological target: human kinase Mps-1 (Homo sapiens (Human), UniProt P33981); test: Mps-1 kinase assay (TR-FRET); assay type: biochemical; conditions: N-terminally GST-tagged human full length recombinant Mps-1, 10 μM ATP
Protocol: The human kinase Mps-1 phosphorylates a biotinylated substrate peptide. Detection of the phosphorylated product is achieved by time-resolved fluorescence resonance energy transfer (TR-FRET) from Europium-labelled anti-phospho-Serine/Threonine antibody as donor to streptavidin labelled with cross-linked allophycocyanin (SA-XLent) as acceptor. Compounds are tested for their inhibition of the kinase activity.
N-terminally GST-tagged human full length recombinant Mps-1 kinase (purchased from Invitrogen, Karslruhe, Germany, cat. no PV4071) was used. As substrate for the kinase reaction a biotinylated peptide of the amino-acid sequence […] (C-terminus in amide form, purchased from Biosynthan GmbH, Berlin) was used.
The concentration of Mps-1 in the assay was adjusted to the activity of the enzyme lot and was chosen appropriate to have the assay in the linear range, typical enzyme concentrations were in the range of about 1 nM (final conc. in the 5 μl assay volume).
The resulting mixture was incubated 1 h at 22° C. to allow the binding of the phosphorylated peptide to the anti-phospho(Ser/Thr)-Europium-antibody. Subsequently the amount of phosphorylated substrate was evaluated by measurement of the resonance energy transfer from the Europium-labelled anti-phospho(Ser/Thr) antibody to the Streptavidin-XLent.

Sequence of human kinase Mps-1 (P33981 whole entry): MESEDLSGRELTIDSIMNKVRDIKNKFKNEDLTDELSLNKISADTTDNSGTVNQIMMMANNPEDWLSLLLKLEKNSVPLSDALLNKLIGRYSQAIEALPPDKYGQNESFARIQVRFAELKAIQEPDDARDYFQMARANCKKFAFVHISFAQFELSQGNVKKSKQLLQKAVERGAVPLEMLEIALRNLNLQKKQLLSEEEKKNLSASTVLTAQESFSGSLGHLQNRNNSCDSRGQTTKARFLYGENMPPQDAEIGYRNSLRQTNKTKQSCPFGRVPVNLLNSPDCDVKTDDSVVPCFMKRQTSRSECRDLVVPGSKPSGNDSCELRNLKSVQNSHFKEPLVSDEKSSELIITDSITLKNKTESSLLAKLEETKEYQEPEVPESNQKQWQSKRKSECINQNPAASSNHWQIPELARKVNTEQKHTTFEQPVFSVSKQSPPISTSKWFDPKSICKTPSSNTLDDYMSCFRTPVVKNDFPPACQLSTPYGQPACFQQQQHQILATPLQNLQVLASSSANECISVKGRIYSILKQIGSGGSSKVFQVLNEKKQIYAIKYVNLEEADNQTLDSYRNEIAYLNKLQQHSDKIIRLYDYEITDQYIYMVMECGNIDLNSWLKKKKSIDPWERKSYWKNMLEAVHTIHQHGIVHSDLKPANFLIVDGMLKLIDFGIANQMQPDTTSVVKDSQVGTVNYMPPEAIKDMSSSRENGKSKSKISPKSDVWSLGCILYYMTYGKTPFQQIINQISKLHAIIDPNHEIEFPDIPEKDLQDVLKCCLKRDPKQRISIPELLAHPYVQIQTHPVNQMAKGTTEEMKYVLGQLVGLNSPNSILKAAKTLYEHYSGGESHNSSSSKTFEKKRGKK

| SMILES | CLhep predicted at 1 μM [1] [mL/min/kg] | IC50 [2] [nM] |
| --- | --- | --- |
| C=C(c1ccc(OC)cc1)c1cc(NCCC(F)(F)F)c2ncc(-c3ccc(C(=O)NC4CC4)c(C)c3)n2n1 [Example 10, N-Cyclopropyl-4-{6-[1-(4-methoxyphenyl)vinyl]-8-[(3,3,3-trifluoropropyl)amino]imidazo[1,2-b]pyridazin-3-yl}-2-methylbenzamide] | 36.7 | – |
| Cc1cc(-c2cnc3c(NCCC(F)(F)F)cc(C(F)(F)c4cccc(F)c4)nn23)ccc1C(=O)NC1CC1 [Example 6, N-Cyclopropyl-4-{6-[difluoro(3-fluorophenyl)methyl]-8-[(3,3,3-trifluoropropyl)amino]imidazo[1,2-b]pyridazin-3-yl}-2-methylbenzamide] | 21.7 | 0.7 |
